# Experiment: decomposition of the isolated drug/linker in solution
# Type: physicochemical
# Details: by HPLC for Example 31
# Description: A solution of MEt-IDA-(Phe-Lys(Mtr)-PABC-MMC)2 30 (134.6 mg, 0.0590 mmol) in methylene chloride (3 mL) at rt was treated with anisole (1.28 mL, 200 equiv) and 1 M chloroacetic acid in methylene chloride (1.18 mL, 20 equiv). After 3.5 h ethyl acetate (30 mL) was added. The resulting purple solid was collected by filtration, washed with ethyl acetate and air-dried (97.8 mg, 82%). […] MS (FAB) 1738.3 (M+Na)^+, 1776.4 (M+K)^+.
# MEt-IDA-(Phe-Lys(Mtr)-PABC-7-Paclitaxel)2 33 (333.0 mg, 0.0861 mmol) in methylene chloride (3 mL) was treated with anisole (1.87 mL, 200 equiv) and 1 M chloroacetic acid in methylene chloride (1.72 mL, 20 equiv). After 4 h the mixture was diluted with ether (30 mL). The resulting suspension was sonicated for several minutes and then the solid was collected by filtration and washed with ether (256.3 mg, 97%). […] MS (ESI) 2778.2 (MH)^+.
substance,measurement,value
MEt-IDA-(Phe-Lys-PABC-MMC)2.2Cl2CHCO2H [Example 31],stability of the product in solution,appeared to decompose in solution to one product

# Reference: patent publication US6759509B1, “Branched peptide linkers” (Bristol-Myers Squibb Company, priority 1996, dated 2004)
